{"source": "paper PMC6378654", "about": "(Journal of Medicinal Chemistry, 2019)", "key": {"[1]": {"biological_target": "T1, human proteasome subunit β2c (Homo sapiens, UniProt Q99436)", "T1 sequence (Q99436 44-277)": "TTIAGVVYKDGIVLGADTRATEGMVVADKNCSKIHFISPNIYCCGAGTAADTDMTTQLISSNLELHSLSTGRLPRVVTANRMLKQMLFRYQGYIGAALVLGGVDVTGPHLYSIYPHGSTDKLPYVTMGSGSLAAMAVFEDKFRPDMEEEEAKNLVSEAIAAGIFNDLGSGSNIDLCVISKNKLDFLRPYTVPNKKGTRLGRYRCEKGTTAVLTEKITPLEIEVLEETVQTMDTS", "experiment": "Competitive ABPP in Raji cell lysates", "format": "biochemical", "details": "for IC50: read-out: Apparent IC50 β2c"}, "[2]": {"experiment": "Solubility in aqueous solutions", "format": "physicochemical", "details": "stated in words"}, "β2i": {"biological_target": "T2, β2i (Homo sapiens, UniProt P40306)", "T2 sequence (P40306 40-273)": "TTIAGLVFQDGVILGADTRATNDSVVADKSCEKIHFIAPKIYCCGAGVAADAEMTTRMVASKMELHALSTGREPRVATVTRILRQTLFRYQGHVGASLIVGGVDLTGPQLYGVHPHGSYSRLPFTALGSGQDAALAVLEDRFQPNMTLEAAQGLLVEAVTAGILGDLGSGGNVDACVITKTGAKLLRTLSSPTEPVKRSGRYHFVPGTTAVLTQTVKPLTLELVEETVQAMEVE", "experiment": "ABPP assay with probe 97 in Raji cell lysates", "format": "biochemical", "details": "for labeling of β2i by probe 97 after preincubation with inhibitor: LU-002i at 3 μM, LU-002c at high concentrations, Figure 4B"}, "[3]": {"system": "human proteasome subunit β2c", "experiment": "Competitive ABPP in Raji cell lysates", "format": "biochemical"}, "[4]": {"biological_target": "T3, human proteasome subunit β2i (Homo sapiens, UniProt P40306)", "T3 sequence (P40306 40-273)": "T2 sequence (P40306 40-273)", "experiment": "Competitive ABPP in Raji cell lysates", "format": "biochemical", "details": "LU-002i 3 μM, LU-002c 0.3 μM, LU-102 1 μM, Figure 4B"}}, "note": "Read-outs that look alike come from different tables or passages of the source."}
{"smiles": "COc1ccc(C[C@H](NC(=O)[C@H](C)NC(=O)CN2CCOCC2)C(=O)N[C@@H](C[C@H]2CCCC3CCCCC32)C(=O)[C@@]2(C)CO2)cc1", "note": "(stereo partly shown) [Compound 74, Morp-Ala-Tyr(Me)-1-DecAla-EK]", "values": [{"measurement": "IC50", "setting": "[1]; Raji cell lysates, Table 6", "value": "> 100", "unit": "µM"}]}
{"smiles": "COc1ccc(C[C@H](NC(=O)[C@H](C)NC(=O)CN2CCOCC2)C(=O)N[C@@H](CC2CCCC3CCCCC32)C(=O)[C@@]2(C)CO2)cc1", "note": "(stereo partly shown) [Compound 5]", "values": [{"measurement": "solubility in aqueous solutions", "setting": "[2]", "value": "poorly soluble"}]}
{"smiles": "COc1ccc(C[C@H](NC(=O)[C@H](C)NC(=O)CN2CCOCC2)C(=O)N[C@@H](CCC2CCCCC2)C(=O)[C@@]2(C)CO2)cc1", "note": "[Compound 39, Morp-Ala-Tyr(Me)-HomoCha-EK]", "values": [{"measurement": "IC50", "setting": "[1]; Raji cell lysates, wider range of final concentrations, Table 5", "value": 2.5, "unit": "µM"}]}
{"smiles": "COc1ccc(C[C@H](NC(=O)[C@H](C)NC(=O)CN2CCOCC2)C(=O)N[C@@H](C[C@H]2CCC[C@@H]3CCCC[C@@H]32)C(=O)[C@@]2(C)CO2)cc1", "note": "[Compound 86, Morp-Ala-Tyr(Me)-1-DecAla-EK]", "values": [{"measurement": "IC50", "setting": "[1]; Raji cell lysates, Table 6", "value": "> 100", "unit": "µM"}]}
{"smiles": "COc1ccc(C[C@H](NC(=O)[C@H](C)NC(=O)CN2CCOCC2)C(=O)N[C@@H](C[C@H]2CCCc3ccccc32)C(=O)[C@@]2(C)CO2)cc1", "note": "[Compound 68, Morp-Ala-Tyr(Me)-1-(R)-TetraNal-EK]", "values": [{"measurement": "IC50", "setting": "[1]; Raji cell lysates, Table 6", "value": "> 100", "unit": "µM"}]}
{"smiles": "CC1=CC(C)=N/C1=C(/CCCCc1cn(CCOc2ccc(C[C@H](NC(=O)[C@H](C)NC(=O)CN3CCOCC3)C(=O)N[C@@H](CC3CCCC4CCCCC43)C(=O)[C@@]3(C)CO3)cc2)nn1)c1c(C)cc(C)n1B(F)F", "note": "(stereo partly shown) [Compound 97, Morp-Ala-Tyr(O–C2H4-BODIPY(FL))-1-DecAla-EK]", "values": [{"measurement": "β2i labeling by ABP 97", "setting": "β2i; final concentration of 3 μM, Figure 4A", "value": "selective"}]}
{"smiles": "Cc1ncc(C(=O)N[C@@H](CC2CCCCC2)C(=O)N[C@@H](CC2CCCCC2)C(=O)N[C@H](/C=C/S(C)(=O)=O)Cc2ccc(CN)cc2)s1", "note": "[Compound 36]", "values": [{"measurement": "selectivity for β2c over β2i", "setting": "[3]; initial screening (Table 1)", "value": 10.5, "unit": "fold"}]}
{"smiles": "CC(C)C[C@H](NC(=O)[C@H](Cc1ccccc1)N=[N+]=[N-])C(=O)N[C@@H](CC(C)C)C(=O)N[C@H](/C=C/S(C)(=O)=O)Cc1ccc(CN)cc1", "note": "[Compound 1, reference compound]", "values": [{"measurement": "labeling of β2i by probe 97 after preincubation with inhibitor", "setting": "β2i", "value": "completely abolished"}]}
{"smiles": "COC[C@H](NC(=O)[C@H](CC(C)C)NC(=O)c1cnc(C)s1)C(=O)N[C@H](/C=C/S(C)(=O)=O)Cc1ccc(CN)cc1", "note": "[Compound 20]", "values": [{"measurement": "selectivity for β2c over β2i", "setting": "[3]; Raji cell extracts, wider range of concentrations (Table 2)", "value": "≥ 27", "unit": "fold"}, {"measurement": "selectivity for β2c over β2i", "setting": "[3]; initial screening (Table 1)", "value": 14, "unit": "fold"}]}
{"smiles": "COc1ccc(C[C@H](NC(=O)[C@H](C)NC(=O)CN2CCOCC2)C(=O)N[C@@H](C[C@@H]2CCCc3ccccc32)C(=O)[C@@]2(C)CO2)cc1", "note": "[Compound 71, Morp-Ala-Tyr(Me)-1-(S)-TetraNal-EK]", "values": [{"measurement": "IC50", "setting": "[1]; Raji cell lysates, Table 6", "value": "> 100", "unit": "µM"}]}
{"smiles": "COc1ccc(C[C@H](NC(=O)[C@H](C)NC(=O)CN2CCOCC2)C(=O)N[C@@H](C[C@@H]2CCCC3CCCCC32)C(=O)[C@@]2(C)CO2)cc1", "note": "(stereo partly shown) [Compound 77, Morp-Ala-Tyr(Me)-1-DecAla-EK]", "values": [{"measurement": "IC50", "setting": "[1]; Raji cell lysates, Table 6", "value": 28, "unit": "µM"}]}
{"smiles": "CC(C)C[C@H](NC(=O)c1cnccn1)C(=O)N[C@@H](CC(C)C)C(=O)N[C@H](/C=C/S(C)(=O)=O)Cc1ccc(CN)cc1", "note": "[Compound 7]", "values": [{"measurement": "decreased potency for β2c compared to LU-102", "setting": "[1]; initial screening", "value": 23, "unit": "fold"}]}
{"smiles": "CC(C)C[C@H](NC(=O)[C@H](Cc1ccccc1)N=[N+]=[N-])C(=O)N[C@@H](C)C(=O)N[C@H](/C=C/S(C)(=O)=O)Cc1ccc(CN)cc1", "note": "[Compound 4]", "values": [{"measurement": "β2c labeling by the three-probe mixture after inhibitor treatment", "setting": "[1]; Raji cell lysates, LU-002c 0.3 μM, LU-102 1 μM, Figure 4B", "value": "completely prevented"}, {"measurement": "β2i labeling by the three-probe mixture after inhibitor treatment", "setting": "[4]", "value": "partially inhibited"}, {"measurement": "labeling of β2i by probe 97 after preincubation with inhibitor", "setting": "β2i", "value": "partially reduced"}]}
